The source of these data is article PMC10299588, “Bromotyrosine-Derived Metabolites from a Marine Sponge Inhibit Pseudomonas aeruginosa Biofilms” (International Journal of Molecular Sciences, 2023).

The structures appear in SMILES notation. Entries after “also recorded” stand apart in the source; their conditions may differ. Read-outs that look alike come from different tables or passages of the source.

In data set [1] the test system is planktonic P. aeruginosa PAO1. Nature of the data set: Minimum inhibitory concentration (MIC) determination. It is filed as cell-based, Pseudomonas aeruginosa. The conditions noted are these: for antimicrobial activity against P. aeruginosa PAO1: up to the highest concentrations applied. How it is done:
The minimum inhibitory concentration (MIC) of compounds and antibiotics were performed as previously described, with minor modification. […] Three antibiotics, including tobramycin, ciprofloxacin, and meropenem, were dissolved in water and filter sterilized. Ten microliters of two-fold serially diluted antibiotics were transferred to a 96-well Costar plate (Corning Inc., Corning, MA, USA) followed by the addition of 90 µL of diluted cultures. After an 18-h incubation at 37 °C in the static condition, optical density OD600 was monitored using a Synergy 2 microplate reader (BioTek, Winooski, VT, USA). […] The MIC was determined as the lowest concentrations of antibiotics that inhibit complete bacterial growth compared to growth control.

The subject of data set [2] is planktonic PAO1. Nature of the data set: Checkerboard assay with antibiotics. It is filed as cell-based, Pseudomonas aeruginosa. Also on record: MIC of ciprofloxacin reduced to: unit not given beside the values. The conditions noted are these: for MIC of ciprofloxacin reduced to: in combination with compound; for synergy with ciprofloxacin: planktonic PAO1. The procedure: The synergistic activity of compounds with antibiotics, including tobramycin, ciprofloxacin and meropenem, was investigated by a checkerboard dilution assay. Briefly, mid-log cultures of P. aeruginosa were diluted 1:1250 before being added to the plates. Next, 90 µL aliquots of diluted cells were added to a 96-well Costar (Corning) plate containing either 10 µL of compounds and/or 10 µL of antibiotics. Compounds and antibiotics were tested at 11 and 7 concentrations, respectively. The first row contained antibiotics alone, while the first column contained compounds alone, and the remaining columns were for combinations.

In data set [3] the test system is efflux pumps of P. aeruginosa. Nature of the data set: Ethidium bromide efflux assay. In kind it is cell-based, Pseudomonas aeruginosa. The conditions noted are these: for efflux pump inhibition (intracellular EtBr accumulation): 60 min, compound 3 at 53.1 and 106.2 µg/mL. The source says:
We performed the ethidium bromide (EtBr) efflux assay to assess the ability of test compounds to inhibit efflux pumps of P. aeruginosa. The DNA-intercalating dye EtBr is a common substrate of the resistance-nodulation-cell division (RND) family. The dye only fluoresces when bound to DNA in the cytoplasm. The disruption of efflux pumps such as the RND pump AcrB enhances the accumulation of the substrate within the cells over time until it reaches a steady state. (Figure 5C).
To investigate the efflux pump-inhibiting activity of test compounds on wild-type PAO1, an efflux assay using ethidium bromide (EtBr) as a substrate was performed as previously described. An overnight culture of PAO1 in LB broth was incubated in a shaker at 37 °C until it reached an OD600 of 0.5. The bacterial cells were washed with phosphate buffered saline (PBS) and centrifuged, and the pellet was resuspended in PBS. Test compounds, 5 µL, were added to the flat-bottomed, black 96-well-plate followed by addition of 90 µL of the bacterial suspension. EtBr at a non-toxic concentration (5 µL, 2 µg/mL) was added before the plates were read. The fluorescence reading was recorded at an excitation of 530 nm and emission of 590 nm every min for 60 min using a BioTek Synergy H1 Hybrid microplate reader. Carbonyl cyanide m-chlorophenyl hydrazone (CCCP), a chemical inhibitor of efflux pumps, was used as the positive control, and DMSO (1–2%) was used as the vehicle control, as compounds were dissolved in DMSO. Untreated cells were used as the negative control.

Data set [4] can be described thus: Stability in liver microsomes. It is filed as in vitro ADME, mouse. The conditions noted are these: for hepatic extraction: calculated from microsomal half-life, fu = 1 assumed; for level of hepatic extraction: classification system of Houston 1994; for half-life at 1 µM: male, CD-1, mouse, liver microsomes. The procedure: The metabolic assays were performed based on a previously described method. […] The final organic (ACN) concentration in the incubation tubes was 1%. […] Samples (50 μL) were removed at t = 0 (immediately after reaction start), 5, 10, 20, 30, and 60 min. Samples were added to microcentrifuge tubes containing 150 μL of ice-cold acetonitrile containing internal standard (clotrimazole; for […] = 10.0 ng/mL + 0.5% (v/v) formic acid; for 1 and 2 = 2.0 ng/mL + 0.5% (v/v) formic acid; for VPL = 20.0 ng/mL + 0.1% (v/v) formic acid). Tubes were centrifuged (13,000× g, 5 min), and ~135 μL of supernatant transferred to polypropylene 96-well plates for analysis.
Chromatographic separation was achieved using a biphenyl column [Kinetix, 100 mm × 4.6 mm, 2.6 μm; Phenomenex (Sydney, Australia)], coupled with a gradient elution with mobile phases containing acetonitrile/H2O/0.5% formic acid. Analysis was conducted in positive ion multiple reaction monitoring (MRM) mode with argon as the collision gas. Optimum MS/MS conditions were established prior to incubations by direct infusion of individual solutions of 1, 2, and 3 into the LC-MS/MS. To ensure adequate sensitivity of analysis, multiple mass transitions were summed for all three test compounds.
LN % remaining vs. time data for each data set were fitted to an exponential decay function to determine the first-order rate constant (k) for substrate depletion. For Equations (5)–(7), scaling parameters used were described elsewhere.

Where [5] appears, read: pH 7.4, no NRS, compound 1 between 20 and 60 min, compound 2 over 30 min, read-out: half-life of degradation, negative control (no NRS added).
Where [6] appears, read: pH 7.4, with NADPH regeneration system, 1.0 µM, 0.5 mg/mL microsomes, read-out: half-life of degradation.

`COc1c(Br)cc(/C=C/C(=O)NCCCNCCCCNCCCN)cc1Br` [Compound 1, ianthelliformisamine A]: in data set [1], the “antimicrobial activity against P. aeruginosa PAO1” value was “no antimicrobial activity”. In addition, in data set [2], the “enhancement of the activity of tobramycin or meropenem” value was “did not enhance”, the “MIC of ciprofloxacin reduced to” value is given as 1/3 and the synergy with ciprofloxacin result is “worked synergistically”. Also, the “efflux pump inhibition (intracellular EtBr accumulation)” value (from here on “efflux pump inhibition”) in data set [3] was “comparable EtBr accumulation with untreated bacteria”. For the same compound, in data set [4], the metabolic stability entry is listed as “moderate degradation”, the hepatic extraction is on record as 0.48 and the “level of hepatic extraction” value is reported as “intermediate”. In addition, the half-life – broadly, the time needed for the level to fall by half in the phase considered – at 1 µM in data set [4] (setting [5]) was approximately 45 min. Besides, in data set [4] (setting [6]), the half-life at 1 µM amounted to 38.2 min.
For `COc1c(Br)cc(/C=C/C(=O)NCCCNCCCCN)cc1Br` [Compound 2, ianthelliformisamine B], in data set [1], the “antimicrobial activity against P. aeruginosa PAO1” value is on record as “no antimicrobial activity”. Further, in data set [2], the “enhancement of the activity of tobramycin or meropenem” value is given as “did not enhance”, the “MIC of ciprofloxacin reduced to” value is reported as 1/4 and the synergy with ciprofloxacin result is reported as “worked synergistically”. For the same compound, the “efflux pump inhibition” value in data set [3] was “comparable EtBr accumulation with untreated bacteria”. Moreover, in data set [4], the metabolic stability result is “moderate degradation; also recorded: moderately degraded”, the hepatic extraction is 0.42 and the “level of hepatic extraction” value was “intermediate”. The half-life at 1 µM in data set [4] (setting [5]) was 90 min. Also, the half-life at 1 µM in data set [4] (setting [6]) was found to be 42.8 ± 7.6 min.
`COc1c(Br)cc(/C=C/C(=O)NCCCNCCCCNCCCNC(=O)/C=C/c2cc(Br)c(OC)c(Br)c2)cc1Br` [Compound 3, ianthelliformisamine C]: the minimum inhibitory concentration (MIC) (usually the smallest concentration in the dilution series that meets the test's criterion for growth inhibition) in data set [1] (Pseudomonas aeruginosa, planktonic (free-living) PAO1, LB medium, 18 h, 37 °C) was 53.1 µg/mL. The synergy with ciprofloxacin entry in data set [2] is listed as “limited synergy”. In addition, in data set [3], the “level of intracellular EtBr accumulation relative to CCCP” value is “greater than that mediated by reference compound CCCP” and the “efflux pump inhibition” value was “is an efflux pump inhibitor”. Besides, in data set [3] (listed as ianthelliformisamine C), the “efflux pump inhibition” value is “inhibited the efflux pump”. In data set [4], the metabolic stability result is “metabolically stable”.
